Results: paper PMC12715788, “Unraveling the Potential of Small Molecule Heparin Glycomimetics in Neuroregenerative Therapeutics” (Journal of the American Chemical Society, 2025)
“And” between values parts separate entries of the source, which are not always exact repeats. Equal values may be shown once. Read-outs that look alike come from different tables or passages of the source.

Legend:
PC12 cells = experiment: NGF-mediated neurite outgrowth on sugar-coated substrates; type: cell-based, rat; settings: PC12 cells on coated surface, NGF 50 ng/mL; control 108 μm
Source text: We next examined the NGF-induced neuritogenic potential of the HS glycomimetics to determine whether they could potentiate neurotrophin-driven neuronal differentiation. To mimic the native role of HS proteoglycans in the ECM, which spatially sequester and present growth factors, we immobilized D2 and also native HS as a positive control onto culture substrates and evaluated its capacity to modulate neural maturation in two well-established neuronal cell models of different species origins, rat-derived PC12 cells and human-derived SH-SY5Y cells. These models represent distinct stages of neuronal differentiation and maturation, and the choice enabled us to compare cellular responses across species, thereby enhancing the translational relevance of our findings. PC12 cells respond to NGF by exiting the cell cycle and extending neurites, while SH-SY5Y cells serve as a model for later-stage maturation and neurite elongation. , […]
In PC12 cells, which serve as a classical model for NGF-induced neuronal differentiation, the presence of both immobilized D2 and native HS coatings led to notable morphological changes relative to control conditions (Figure C). […] Although images used for quantification were selected from well-dispersed regions, we also observed instances of cell clustering in both control and D2 groups (Figure S6.1, Supporting Information). […]

NGF = NGF (Homo sapiens, UniProt P01138); experiment: BLI binding assay, sugars immobilized, protein as analyte; settings: steady-state affinity curve fitting
Chain of NGF (P01138 122-241): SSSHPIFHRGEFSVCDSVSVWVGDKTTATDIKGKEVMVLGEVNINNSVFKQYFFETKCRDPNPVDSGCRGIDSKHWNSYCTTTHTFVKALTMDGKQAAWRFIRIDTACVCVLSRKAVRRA
Experimental: (§1) We evaluated the binding affinity of native HS and synthetic HS glycomimetics (M1, D1, D2, D3, and T1) to these proteins using biolayer interferometry (BLI). The terminal amino groups of the sugars were immobilized onto the sensor surface using standard amine coupling chemistry, and binding assays were performed by introducing the proteins as analytes at varying concentrations (Figure A). The equilibrium dissociation constants (K D) were determined using the steady-state affinity curve fitting.

FGF-2 [1] = biological target: T1, FGF-2 (Homo sapiens, UniProt P09038); experiment: as above; settings: steady-state affinity curve fitting
T1 sequence (P09038 134-288 limits assumed, species assumed): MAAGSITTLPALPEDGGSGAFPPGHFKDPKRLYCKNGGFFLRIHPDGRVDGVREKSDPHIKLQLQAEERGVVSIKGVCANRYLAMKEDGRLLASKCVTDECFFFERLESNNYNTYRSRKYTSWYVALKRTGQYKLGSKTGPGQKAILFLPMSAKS
Experimental: as §1

FGF-1 [2] = biological target: T2, FGF-1 (Homo sapiens, UniProt P05230); experiment: as above; settings: steady-state affinity curve fitting
T2 sequence (P05230 whole entry, species assumed): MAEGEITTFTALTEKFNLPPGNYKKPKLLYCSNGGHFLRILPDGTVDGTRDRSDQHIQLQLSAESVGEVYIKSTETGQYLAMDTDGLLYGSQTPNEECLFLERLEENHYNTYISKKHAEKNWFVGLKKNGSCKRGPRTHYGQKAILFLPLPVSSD
Experimental: as §1

AT-III = AT-III (Homo sapiens, UniProt P01008); experiment: as above
Chain of AT-III (P01008 33-464): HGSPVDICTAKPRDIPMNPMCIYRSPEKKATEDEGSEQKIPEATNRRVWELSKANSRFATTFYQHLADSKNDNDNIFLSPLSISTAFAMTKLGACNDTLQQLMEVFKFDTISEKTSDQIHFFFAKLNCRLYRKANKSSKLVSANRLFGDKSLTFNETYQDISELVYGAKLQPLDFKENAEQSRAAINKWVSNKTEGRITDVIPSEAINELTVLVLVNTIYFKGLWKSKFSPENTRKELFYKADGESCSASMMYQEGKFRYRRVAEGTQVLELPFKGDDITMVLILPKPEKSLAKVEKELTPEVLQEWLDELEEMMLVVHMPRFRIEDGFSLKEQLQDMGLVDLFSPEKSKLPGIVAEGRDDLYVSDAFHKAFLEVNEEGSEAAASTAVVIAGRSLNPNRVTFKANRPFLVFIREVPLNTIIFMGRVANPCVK
Experimental: as §1

SH-SY5Y cells = experiment: NGF-mediated neuronal maturation on sugar-coated substrates, β-tubulin III fluorescence; type: cell-based, human; settings: SH-SY5Y cells on coated surface, NGF 50 ng/mL; control 1.43
Source text: We next examined the NGF-induced neuritogenic potential of the HS glycomimetics to determine whether they could potentiate neurotrophin-driven neuronal differentiation. To mimic the native role of HS proteoglycans in the ECM, which spatially sequester and present growth factors, we immobilized D2 and also native HS as a positive control onto culture substrates and evaluated its capacity to modulate neural maturation in two well-established neuronal cell models of different species origins, rat-derived PC12 cells and human-derived SH-SY5Y cells. These models represent distinct stages of neuronal differentiation and maturation, and the choice enabled us to compare cellular responses across species, thereby enhancing the translational relevance of our findings. PC12 cells respond to NGF by exiting the cell cycle and extending neurites, while SH-SY5Y cells serve as a model for later-stage maturation and neurite elongation. ,
In this context, the immobilization of D2 onto culture substrates provided a means to investigate how its presentation as an ECM-like component influences neurotrophic responses, particularly in combination with NGF. In both cell lines, D2 and native HS were applied to the substrate prior to seeding, thereby mimicking its natural role as a structural component of the ECM. […]

[3] = test system: rat dissociated hippocampal neurons; experiment: Neurite morphometry in dissociated hippocampal neurons; type: cell-based; settings: 24 h treatment, 1 day in vitro, D2 1 μM, FGF-2 40 ng/mL, mean ± SEM
Experimental: In the pursuit of this, we used rat dissociated hippocampal neurons as an in vitro model system. We assessed the impact of HS glycomimetics on neuronal morphology, using immunofluorescence imaging and quantitative morphometric analysis, and on synaptic functionality through electrophysiological monitoring of spontaneous neuronal activity.
During the first day of differentiation in vitro (Table S7.1 in SI), neurons were treated for 24 h with either control medium, glycomimetic D2 (1 μM), FGF-2 (40 ng/mL) alone, or a combination of FGF-2 and D2 (40 ng/mL and 1 μM, respectively). After treatments, cultures were fixed and immuno-labeled with antibodies against the neuronal marker β-Tubulin III to study cell morphology. […] Quantitative analysis further corroborated these observations (Figure B–C).

FGF-2 [4] = biological target: T1, FGF-2; experiment: BLI competition assay with immobilized native HS for FGF-2 binding
Source text: We next examined the functional relevance of the synthetic HS glycomimetics by testing their ability to compete with native HS for FGF-2 binding using competition assays. Although direct binding assays measure the intrinsic affinity of HS glycomimetics for FGF-2, they are limited in representing the complex, multimolecular environment of biological systems. In vivo, FGF-2 activity is tightly regulated by its interactions with GAGs, which are abundant on cell surfaces and in the ECM. These interactions stabilize FGF-2 and facilitate its dimerization with FGF receptors (FGFRs), a requirement for effective signal transduction. , Thus, therapeutic candidates targeting FGF-2 must be evaluated not only for direct binding but also for their ability to modulate or disrupt GAG-mediated interactions. Therefore, we performed competition assays in which native HS was immobilized on the sensor surface. Solutions containing a fixed concentration of FGF-2 (50 nM) were premixed with varying concentrations of HS glycomimetics, functioning as inhibitors in this context, (M1, D1, D2, D3, and T1) and also with the heparin hexasaccharide (H1) (GlcNS6S-GlcA-GlcNS3S6S-IdoA2S-GlcNS6S-GlcA), a well-studied HS glycomimetic in the literature, as a positive control (Figure B). […] The progressive decrease in signal intensity with increasing inhibitor concentration directly reflects competition with immobilized HS for FGF-2 binding.

FGF-2 [5] = biological target: T1, FGF-2; experiment: Far-UV CD spectroscopy and CD thermal denaturation; settings: CD thermal denaturation 10–90 °C; protein with sugar, 1:3 molar ratio
Source text: (§2) To select a lead compound, we complemented the affinity data with a series of studies evaluating the structural and functional implications of protein-HS glycomimetic interactions. We assessed the therapeutic safety profile of our HS glycomimetics. We also employed circular dichroism (CD) spectroscopy to assess secondary structural changes in protein conformation upon binding to native HS and HS glycomimetics. Since native HS alone produces only a minimal signal, it was ensured that its contribution would not interfere with protein-sugar complex spectra. Therefore, only the far-UV CD spectra of bare proteins and their sugar complexes were recorded. […] Upon incubation with sugars (1:3 molar ratio), significant spectral changes were observed, indicating sugar-induced alterations in secondary structure (Figure A).
(§3) We also evaluated the thermal stability of the proteins and their sugar complexes by CD-based thermal denaturation experiments. The spectra were recorded across a temperature range of 10–90 °C (Figure B). For all proteins except AT-III, the unfolding profiles were analyzed to determine the melting temperature (T m), representing the midpoint of the transition from the folded to the unfolded state, an indicator of structural integrity and resistance to thermal denaturation. The calculated values are compiled in Table .

FGF-1 [6] = biological target: T2, FGF-1; experiment: Far-UV CD spectroscopy and CD thermal denaturation; settings: CD thermal denaturation 10–90 °C; protein with sugar, 1:3 molar ratio
Source text: as §2, §3

[7] = test system: citrated pooled rat plasma; experiment: Activated partial thromboplastin time (aPTT) assay
Source text: To complement these findings, we performed an activated partial thromboplastin time (aPTT) assay in citrated pooled rat plasma to assess the overall impact of the compounds on the intrinsic coagulation pathway. This global clotting assay measures the time required for fibrin formation and is sensitive to anticoagulant effects. Figure F,G compare the effects of UFH, heparan sulfate, Fondaparinux, and the synthetic glycomimetics when supplemented into citrated plasma. […] As expected, UFH produced a strong, concentration-dependent anticoagulant response, prolonging the mean clotting time to 271 s at the highest concentration tested, while heparan sulfate and Fondaparinux induced weaker but measurable effects (83 and 37 s, respectively). […] The results further confirm that selective sulfation patterns can decouple GF recognition from anticoagulant function, an essential prerequisite for their translational application in regenerative medicine. […] These interactions are in line with nonspecific electrostatic binding, a feature of highly sulfated oligosaccharides known to engage different proteins via charge-based, rather than specific, biologically targeted interactions. Thus, to avoid potential off-target effects associated with highly sulfated analogues, we selected the disaccharide D2 for subsequent biological experiments.

Kd (NGF; read-out: KD for NGF, two-site binding model, first value): 2600 nM
Kd (NGF; read-out: KD for NGF, two-site binding model, second value): 468000 nM
Kd (FGF-2 [1]): 670 nM
Kd (FGF-1 [2]): 780 nM
binding to AT-III (AT-III): no measurable binding
IC50 (FGF-2 [4]; FGF-2 50 nM, fixed association time t = 240 s, read-out: Apparent IC50(t), competition with immobilized native HS for FGF-2 binding): 17900 nM
FGF-2 Sample Tm (FGF-2 [5]): 52.4 °C and 52.4 ± 1.2 °C
FGF-1 Sample Tm (FGF-1 [6]): 45.0 °C and 45.0 ± 0.4 °C
aPTT mean clotting time ([7]; citrated pooled rat plasma, highest concentration tested, control 22 s): 24 s
anticoagulant activity ([7]; conclusion from aPTT and chromogenic assays): without any anticoagulant activity
Structure (SMILES): CC(=O)N[C@H]1[C@@H](OCCN)O[C@H](COS(=O)(=O)O)[C@@H](O[C@@H]2O[C@@H](C(=O)O)[C@@H](OS(=O)(=O)O)[C@H](O)[C@H]2OS(=O)(=O)O)[C@@H]1O [D2, IdoA2S4S-GlcNAc6S]
total neurite outgrowth per image (average sum of neurite length) (PC12 cells): 541 μm
mean normalized β-tubulin III fluorescence intensity (SH-SY5Y cells): 2.15
number of neurites emerging from the cell body ([3]; control 3.6 ± 0.22): 3.8 ± 0.23 neurites per neuron
length of the longest neurite ([3]; control 38 ± 2): 43 ± 3 μm
competition with immobilized native HS for FGF-2 binding, signal intensity (FGF-2 [4]; FGF-2 50 nM premixed with varying concentrations): dose-dependent reduction in signal intensity
